Among the data in a melting point compilation (Tetko et al.; mined from patent text by program, amines drawn as free bases though some values may be those of a salt) are melting point values, retold here.

`CCOC(=O)C1CCc2ccc(NC(=O)OC(C)(C)C)c(C)c2O1` (stereo not drawn): the melting point (as a rule, the temperature, or range, at which the solid turns liquid) was 123 to 124 °C.
The molecule `OCc1cn(-c2ccc(C(F)(F)F)cn2)nc1C1CCCCC1` displayed a melting point of 138 to 139 °C.
Molecule `CCC(CC)Nc1nc(Cc2cc(OC)c(OC)c(OC)c2)nc2sc(C#N)c(C)c12` showed a melting point of 127 to 129 °C.
Molecule `CC(C)c1nc(CO)c(CO)[nH]1` registered a melting point of 200 to 201 °C.
The value for `CC(=O)c1ccc2c(c1)C(c1ccccc1F)=NC(C)(C)C(=O)N2C` was 68 °C; that for `Cc1nnc(CNC(=O)CNC(=O)CN2C(=O)c3ccccc3C2=O)n1-c1ccc(Cl)cc1C(=O)c1ccccc1Cl` was 269 to 270 °C; that for `COC(=O)c1ccc2[nH]cc(C(C)=O)c2c1` was 235 to 236 °C.
For the molecule `Cn1c(COc2ccc(CC3SC(=O)N(C(c4ccccc4)(c4ccccc4)c4ccccc4)C3=O)cc2)nc2ccc(Oc3ccc(C#N)cc3)cc21` (stereo not drawn), the melting point is 135 to 138 °C.
`O=S(=O)(NCc1ccccc1)c1cccc(-c2cc(-c3nc(-c4ccc(C(F)(F)F)cc4)cc(C(F)(F)F)n3)ccn2)c1` registered a melting point of 202 °C.
With `O=c1[nH]c2ccc(Cl)cc2c(=O)n1N1CCOCC1`, the melting point came to 335 °C.
As to `COCOc1ccc(CCNC(=O)/C(C#N)=C/c2cccnc2)cc1`, the melting point lay within 105 to 106 °C.
The value for `CC(C)(C)OC(=O)NCc1nc(C(=O)O)cs1` was 185 °C; that for `O=C(Nc1ccc(N2CC3CC3C2)nc1)c1cc2cc(F)cnc2n1Cc1cccc(F)c1` (stereo not drawn) was 222 to 224 °C; that for `CCC(c1ccc(NC(=O)Cc2ccccc2C)c([N+](=O)[O-])c1)n1ccnc1` (stereo not drawn) was 122 °C.
The molecule `CCCCCCCCCCCCCCN=C=O` gave a melting point of 100 to 104 °C.
Molecule `Nc1nc2c(sc(=O)n2CC2CCCO2)c(=O)[nH]1` (stereo not drawn) registered a melting point of 257 to 261 °C.
Molecule `CCCc1nc2ccc(N)cc2n1Cc1ccccc1Cl` gave a melting point of 121 to 122 °C.
Take `CCN1CCN(c2nc(-c3ccc(OC)cc3)nc3sc(C#N)c(C)c23)CC1`: the melting point lay within 173 to 175 °C.
Molecule `O=C(c1ccc2c(c1)Cc1ccccc1-2)N1Cc2cccn2Cc2ccccc21` registered a melting point of 202 to 204 °C.
`CN1CCN(c2cc(Cl)cc3c2c(=O)n(Cc2cccc(Br)c2)c(=O)n3Cc2ccccc2)CC1` displayed a melting point of 154 to 157 °C.
Molecule `CCOC(C)c1ccc(OCCOc2ncnc(NS(=O)(=O)c3ccc(C(C)(C)C)cc3)c2-c2ccc(C)cc2)cc1` (stereo not drawn) yielded a melting point of 139 to 140 °C.
Turning to `COc1ccc(N2CCOCC2)c2sc(-c3nc4c([nH]3)CCN(C(=O)c3ccc(F)cc3)CC4)nc12`, the melting point lay in the range of 205 to 207 °C.
With `NC1COC2=CC3=C(OCCC3)C(=O)C21` (stereo not drawn), the melting point was more than 260 °C.
Take `O=C(O)Cc1c(Cl)nc(-c2ccccc2)n1Cc1ccccc1`: the melting point was in the range of 161 to 163 °C.
On to `COC(=O)COc1ccc(C(=O)CN2CCN(c3ccncc3)CC2=O)cc1`, for which the melting point lay in the range of 164 to 165 °C.
In turn, `Cc1c(C(=O)N[C@H](C)[C@](O)(Cn2cncn2)c2ccc(F)cc2F)cnn1-c1ccc(C(F)(F)F)cc1` displayed a melting point of 180 to 181 °C.
As to `CS(=O)(=O)Oc1ccc2c(c1)CN(C(=O)CCCCCN1CCN(c3cccc(C(F)(F)F)c3)CC1)C2`, the melting point amounted to 109 °C.
For `O=C1N(CC2CCCO2)c2ccccc2C12COc1cc3c(cc12)OCCO3` (stereo not drawn), the melting point was in the range of 174 to 176 °C.
Molecule `COc1cccc(CC(=O)O)c1OCCCc1cn(-c2ccc(NC(C)=O)cn2)nc1C(C)C` displayed a melting point of 158 to 159 °C.
The molecule `CNC(=O)c1cccc(Br)c1` came in with a melting point of 126 °C.
Molecule `O=C1c2cc(F)cc(F)c2OC[C@H]1NC(=O)C(F)(F)F` registered a melting point of 167 to 168 °C.
`Cn1ncc(/C=C/C(=O)Nc2ccc(Cc3nnco3)cc2)c1-c1ccc(F)cc1` showed a melting point of 223 to 224 °C.
`COc1ccc(COc2ccc3cc(C(C)C(=O)O)ccc3c2)cc1OC1CC2CCC1C2` (stereo not drawn): the melting point lay within 125 to 128 °C.
